The text below walks through data of EPA's ToxValDB 9.5 (doi:10.2903/j.efsa.2009.189r).

In one series the test system is Rattus norvegicus. Particulars: for LD50: acute, oral, mortality; for NOEL: chronic.
A further series concerns Anas platyrhynchos. As to conditions: acute; oral; unspecified; mortality.
The next series relates to Apis mellifera. As to conditions: acute; duration: 48 hours; oral; unspecified; mortality.
Another series has as its system Canidae. Particulars: chronic; duration: 1 years; oral; Dog Other; organ weight.
For another series, the system named is Colinus virginianus. As to conditions: for NOEC: reproduction developmental.
For a further series, the system named is Folsomia candida. As to conditions: chronic/long-term.
A further series concerns Lepomis macrochirus. Particulars: acute; duration: 96 hours; mortality.
The next series relates to Mus musculus. As to conditions: acute; oral; mortality.
In a further series the test system is Pimephales promelas. As to conditions: chronic/long-term; duration: 359 days; mortality.
The test system of the next series is Tagia sp. As to conditions: acute; duration: 14 days; mortality.
In another series the test system is Chrysoperla externa. Briefly: LR50; higher = less toxic. Particulars: not reported; mortality.

In the case of `NC(=O)c1c(F)cccc1F` [Benzamide, 2,6-difluoro-], the LD50 with Rattus norvegicus was determined as 2060 mg/kg-day.

For `O=C(NC(=O)c1c(F)cccc1F)Nc1cc(Cl)c(OC(F)(F)C(F)C(F)(F)F)cc1Cl` (configuration not stated) [Lufenuron], the LD50 in the series on Anas platyrhynchos is 2000 mg/kg; in the series with Apis mellifera, above 197 µg/piece; in the series with Colinus virginianus (acute, oral, mortality), 2000 mg/kg; in the series with Mus musculus, above 2000 mg/kg-day; in the series on Rattus norvegicus, above 2000 mg/kg-day. Besides, the NOAEL (in general, the highest dose or exposure tested at which no adverse effect was seen) in the series on Canidae is 1.5 mg/kg-day. For the same compound, the LC50 with Colinus virginianus (acute, oral, diet, mortality) is 966 mg/kg-day; with Lepomis macrochirus, above 29 µg/mL; in the series with Tagia sp. it was above 1000 mg/kg. For the same compound, the NOEC in the series with Colinus virginianus amounted to 19.7 mg/kg-day; with Colinus virginianus (duration: 90 days) it was 20000 mg/kg-day; in the series with Folsomia candida it was 0.2 mg/kg; with Pimephales promelas, 0.02 mg/L. Also, the NOEL worked out at 10.9 mg/kg-day in the series on Rattus norvegicus (F) and 8.3 mg/kg-day in the series on Rattus norvegicus (M). In the series on Chrysoperla externa, this compound showed an LR50 of 0.4 g/ha.
